Source: US6423739B1, “Method for aiding cerebral recovery following neurodegeneration” (Daiichi Pharmaceutical Co., Ltd., priority 2000, dated 2002)

Legend:
[1] = test system: hippocampal and cortical rat embryo neurons; experiment: Neurite outgrowth in primary cultures of hippocampal and cortical rat embryo neurons; type: cell-based
[2] = test system: post-stroke patients; experiment: Controlled clinical trial against placebo, symptom scale measuring Activities of Daily Living; type: in vivo, human
Description: The activity of nefiracetam to improve ADL in post-stroke patients has been discovered during a controlled clinical trial against placebo. The compound has been administered orally to 32 post-stroke patients within six months after the event whilst, concurrently, 27 patients received placebo. The two groups of patients were followed during at least 8 weeks and followed up at the end of week 4 and at the end of week 8 on a symptom scale measuring Activities of Daily Living. […] Among the above 59 patients, 19 received nefiracetam and 10 received placebo within three months after stroke. […] The difference was significant (p=0.035, χ^2 test). […] Thus nefiracetam, when administered early after the event, appears to be the first drug which is able to induce a recovery from stroke or, at least, to improve the recovery from stroke.

[3] = test system: rats with cerebral embolism; experiment: Watermaze spatial learning and retention test in rats with cerebral embolism; type: in vivo, rat
Description: The mechanism of action of nefiracetam for this indication, which is not bound to the nootropic activity of the drug, is unknown, but it is believed that its surprising effect in improving ADL of a patient after a stroke or in the recovery of, or at least in improving the recovery of, a post-stroke patient, is due to a true brain repair. This assumption is confirmed by the effect of nefiracetam on spatial learning and retention in rats with cerebral embolism, treated for 9 days with nefiracetam or vehicle, starting within 24 hours of embolization.
In male Wistar rats weighing 190-220 g a total of 700 microspheres (48 μm in diameter) were injected into the right common carotid artery of each animal, whereby a quasi-immediate embolism occurs. The embolized animals were randomly divided into 2 groups, each of 13 animals with same neurological deficit, designated as “Control” (embolism plus Vehicle), or “Nefiracetam” (embolism plus nefiracetam 10 mg/kg/day). In addition, a group of 13 “Normal (Sham)” non-embolized animals were used. The administration of nefiracetam or of its vehicle started within the same day of embolization and treatment lasted 9 days. Seven days after embolization, the embolized rats were submitted to a watermaze test, said watermaze being adapted from the Morris water task. The time taken to find the platform (latency) was determined. […]

[4] = test system: patients after a stroke (cerebral infarction or cerebral hemorrhage); conditions: post-stroke patients, Ohtomo et al. 1994; cited from earlier work

Cc1cccc(C)c1NC(=O)CN1CCCC1=O [Nefiracetam, N-(2,6-dimethylphenyl)-2-(2-oxo-1-pyrrolidinyl)acetamide]
Neurotrophic effect: neurite outgrowth ([1]; concentrations of 0.1, 1, 10 and 100 micromoles/l): significantly increasing neurite outgrowth | Neurotrophic effect in combination with bFGF ([1]; hippocampal neurons): potentiated by bFGF | Patients showing a moderate or remarkable improvement (Activities of Daily Living) ([2]; 19 patients who received nefiracetam within three months after stroke, p=0.035 vs placebo, chi2 test): ~70% | Intellectual dysfunction ([2]; early treatment after stroke): dramatically improved in a high percent of nefiracetam-treated patients | Neurological signs and incontinence ([2]; early treatment after stroke): tends to improve | Improvement on symptom scale measuring Activities of Daily Living ([2]; oral, 32 post-stroke patients treated within six months after the event, followed at week 4 and week 8): moderate or remarkable improvement | Persistence of the effect after washout ([3]; day 17 after embolization): maintained even after washout | Difference in learning ability versus vehicle-treated (control) brain-injured animals ([3]; days 7-9 post-embolism, t-test, p<0.05 compared to control): statistically significant | Activities of daily living, nefiracetam vs placebo group [4]: no significant difference between the two groups
